Results taken from patent US8530404B2, “Compounds and methods for treatment of cancer” (FibroGen, Inc., priority 2005, dated 2013).
Where two headings read alike, the source gives them in different places.

What was measured:
[1] = system: BNIP3 gene expression; test: BNIP3 gene expression in Hep3B cells (Affymetrix microarray); assay type: cell-based, human; conditions: 25 μM, vs DMSO control
Protocol: (§1) To identify compounds useful in the methods of the present invention, the following studies were performed. The effect of compounds of the present invention on expression of various genes associated with anti-tumor activity (e.g., genes having anti-proliferative activity, genes having pro-apoptotic activity, genes having anti-tumor activity, etc.). In these experiments, the effect of compounds on BNIP3, BNIP3L, NDRG1, CDKN1C, and REDD1/RTP801 gene expression in various types of cultured tumor cells line was examined, including Hep3B cells (human hepatocellular carcinoma), Kelly neuroblastoma cells, and MCF7 cells (human breast cancer)
(§2) The effects of various compounds of the present invention on the expression of genes associated with tumor growth and progression were examined in Hep3B cells as follows. Hep3B cells (ATCC) were cultured in DMEM containing 8% fetal bovine serum (FBS) and antibiotics. For each experiment, Hep3 cells were added to 6-well tissue culture dishes (approximately 500,000 cells per well). After 8 hours, the media was replaced with DMEM containing 0.5% FBS. Sixteen hours later, various compounds of the present invention were added to the cultured cells to a final concentration of 25 μM. The cells were then harvested and added to RNA extraction buffer (RNeasy, Qiagen). RNA was isolated from cell lysates using RNeasy Mini spin columns (Qiagen) according to the manufacturer's instructions. Changes in expression of various gene transcript levels associated with tumor growth and progression were determined by Affymetrix microarray. Labeled probes were prepared and hybridized to U133A Affyrnetrix microarrays.
(§3) Changes in gene expression levels in vitro following compound addition are presented as fold change relative to gene expression levels observed in control cells treated with DMSO only. Data represents the average of two independent studies.

[2] = system: BNIP3L gene expression; test: BNIP3L gene expression in Hep3B cells (Affymetrix microarray); assay type: cell-based, human; conditions: 25 μM, vs DMSO control
Protocol: as §1, §2, §3

[3] = system: NDRG1 gene expression; test: NDRG1 gene expression in Hep3B cells (Affymetrix microarray); assay type: cell-based, human; conditions: 25 μM, vs DMSO control
Protocol: as §1, §2, §3

[4] = system: REDD1/RTP801 gene expression; test: REDD1/RTP801 gene expression in Hep3B cells (Affymetrix microarray); assay type: cell-based, human; conditions: 25 μM, vs DMSO control
Protocol: as §1, §2, §3

[5] = system: BNIP3 gene expression; test: In vivo BNIP3 gene expression in Swiss Webster mice (quantitative PCR); conditions: Mus musculus, iv, 4 h, single 60 mg/kg i.v. dose, four hours after administration, normalized to 18S, read-out: fold change in BNIP3 mRNA level
Protocol: (§4) The effects of various compounds of the present invention on the expression of genes associated with tumor growth and progression (e.g., expression of genes associated with anti-proliferative effects) were examined in vivo as follows. In these studies, male Swiss Webster mice (25 g) were administered a single intravenous (i.v.) dose of various compounds (60 mg/kg) of the present invention via the tail vein. Four hours after administration of compound, the kidneys and liver were removed and preserved in RNAlater (Ambion). RNA isolation and cDNA synthesis was carried out as follows. Murine kidney tissue was added to TRIzol (Invitrogen) and homogenized using a 5-mm stainless steel bead for 4 minutes at 25 Hz in a Mixer Mill 300 (Qiagen). Homogenates were extracted with chloroform according to the manufacturer's instructions and aqueous supernatants were isolated. The aqueous supernatants were combined with equal volumes of 70% ethanol and then loaded onto RNeasy Mini spin columns (Qiagen). RNA was isolated according to the manufacturer's instructions.
(§5) Synthesis of cDNA from the isolated total RNA was carried out using Omniscript reverse transcriptase (Qiagen) and random primers according to the manufacturer's instructions. Measurement of gene expression levels in compound-treated animals and in vehicle-treated control animals was performed by quantitative PCR using TaqMan Universal PCR Master Mix (Applied Biosystems) and TaqMan Assay-on-Demand assays (Applied Biosystems) in a Prism 7000 system instrument (Applied Biosystems), according to manufacturer's instructions. The assays used were as follows: 18S ribosomal RNA, Hs99999901_s1; BNIP3, Mm00833810_g1; BNIP3L, Mm00786306_s1; NDRG1, Mm00440447_m1. Each PCR amplification reaction included a standard curve and a water blank. Data for gene expression levels for BNIP3, BNIP3L, and NDRG1 were normalized to that of 18S ribosomal RNA within each sample. Data is presented as fold change in specific mRNA levels relative to that of non-treated control animals.

[6] = system: BNIP3L gene expression; test: In vivo BNIP3L gene expression in Swiss Webster mice (quantitative PCR); conditions: Mus musculus, iv, 4 h, single 60 mg/kg i.v. dose, four hours after administration, normalized to 18S, read-out: fold change in BNIP3L mRNA level
Protocol: as §4, §5

[7] = system: BNIP3 gene expression; test: BNIP3 gene expression in MCF7 cells; assay type: cell-based; conditions: Homo sapiens; MCF7 cells; 20 μM; 20-24 hours; vs 0.5% DMSO control; read-out: fold-increase in BNIP3 mRNA expression
Protocol: as §1
(§6) The effects of various compounds of the present invention on the expression of genes associated with tumor growth and progression were examined in MCF7 breast cancer cells as follows. In some experiments, MCF7 (ATCC) cells were plated in 96-well tissue culture dishes (approximately 20,000 cells per well) and cultured in DMEM media supplemented with 10% serum. The following day, the cells were washed and the media was replaced with DMEM containing 0.5% FBS. Various compounds of the present invention were added to the cultured cells to a final concentration of 20 μM, and the cells cultured for an additional 20-24 hours. DMSO (0.5%) was added to control cell cultures. RNA was isolated as described above. Changes in gene expression levels are presented as fold change compared to that of control (0.5% DMSO-treated) cultures.
In other experiments, MCF7 cells were plated in 96-well tissue culture dishes as described above. After 24 hours, the cells were washed and the media was replaced with DMEM containing 0.5% FBS. Various compounds of the present invention were added to the cultured cells to a final concentration of 20 μM. DMSO (0.5%) was added to control cell cultures. After 24 hours, changes in gene expression of BNIP3 and 18S RNA were determined directly using one-step quantitative multiplex RT-PCR reactions according to the manufacturer's instructions (QuantiTect Multiplex RT-PCR Kit, Qiagen, catalog no. 204643). Changes in gene expression levels are presented as fold change compared to that of control (0.5% DMSO-treated) cultures.

[8] = system: BNIP3 gene expression; test: BNIP3 gene expression in Kelly neuroblastoma cells; assay type: cell-based; conditions: Kelly cells; 20 μM; 20-24 hours; normalized to 18S RNA; vs DMSO control; read-out: fold-increase in BNIP3 mRNA expression
Protocol: as §1
(§7) The effects of various compounds of the present invention on the expression of genes associated with tumor growth and progression were examined in Kelly neuroblastoma cells as follows. Kelly neuroblastoma cells were grown in RPMI media. For each experiment, Kelly neuroblastoma cells were added to 96-well tissue culture plates (approximately 40,000 cells per well) such that the plated cells reached confluence the following day. On the following day, the cells were washed and the media replaced with RPMI containing 0.5% FBS. Various compounds of the present invention were added to the cultured cells to a final concentration of 20 μM, and the cells cultured for an additional 20-24 hours. DMSO (0.5%) was added to control cell cultures.
(§8) RNA was isolated from the Kelly neuroblastoma cells using a commercial kit and used for the preparation of cDNA. BNIP3, CDKN1C, and 18S RNA levels were measured using commercial kits (18S, Applied Biosystems cat#4319413E); BNIP3, Applied Biosystems cat#HS00969293 MH). RNA levels for BNIP3 and CDKN1C were normalized to that of 18S RNA and is presented as fold-change compared to that observed in DMSO control cultures. Kelly cell NDRG1 and BNIP3L mRNA levels were measured by Affymetrix microarray in a separate study. Cells were harvested after 6 hours incubation with 20 μM test compound or DMSO (0.5%) as control. RNA was isolated and labeled probes were prepared and hybridized to U133 Plus 2.0 Affymetrix microarrays. Changes in gene expression levels are presented as fold change compared to that of control (0.5% DMSO-treated) cultures.

[9] = system: CDKN1C gene expression; test: CDKN1C gene expression in MCF7 cells; assay type: cell-based; conditions: Homo sapiens; MCF7 cells; 20 μM; 20-24 hours; vs 0.5% DMSO control; read-out: fold-increase in CDKN1C mRNA expression
Protocol: as §1, §6

[10] = system: CDKN1C gene expression; test: CDKN1C gene expression in Kelly neuroblastoma cells; assay type: cell-based; conditions: Kelly cells; 20 μM; 20-24 hours; normalized to 18S RNA; vs DMSO control; read-out: fold-increase in CDKN1C mRNA expression
Protocol: as §1, §7, §8

[11] = system: NDRG1 gene expression; test: In vivo NDRG1 gene expression in Swiss Webster mice (quantitative PCR); conditions: Mus musculus, iv, 4 h; kidney; single 60 mg/kg i.v. dose; four hours after administration; normalized to 18S; read-out: fold change in NDRG1 mRNA level
Protocol: as §4, §5

Row | SMILES | fold-increase in BNIP3 mRNA expression [1] [fold] | fold-increase in BNIP3L mRNA expression [2] [fold] | fold-increase in NDRG1 mRNA expression [3] [fold] | fold-increase in REDD1/RTP801 mRNA expression [4] [fold] | fold induction at 60 mg/kg ([5]; liver) | fold induction at 60 mg/kg ([6]; liver) | fold induction at 20 µM [7] | fold induction at 20 µM [8] | fold induction at 20 µM [9] | fold induction at 20 µM [10] | fold induction at 60 mg/kg ([5]; kidney) | fold induction at 60 mg/kg ([6]; kidney) | fold induction at 60 mg/kg [11]
1 | O=C(O)c1c[nH]c2c(ccc3cccnc32)c1=O [Compound F, 4-Oxo-1,4-dihydro-[1,10]phenanthroline-3-carboxylic acid] | 3.5 | 3.2 | 5.4 | 6.3 | 1.1 | 1.3 |  |  |  |  |  |  | 
2 | COc1ccc(CCN(CCC(=O)NO)S(=O)(=O)c2ccc(NC(=O)N(Cc3ccccc3)Cc3ccccc3)cc2)cc1 [Compound G, 3-{[4-(3,3-Dibenzyl-ureido)-benzenesulfonyl]-[2-(4-methoxy-phenyl)-ethyl]-amino}-N-hydroxy-propionamide] | 4.2 | 4.3 | 6.8 | 14.1 |  |  |  |  |  |  |  |  | 
3 | O=C(O)CNC(=O)c1nc2cc(Cl)ccc2cc1O [Compound H, [(7-Chloro-3-hydroxy-quinoline-2-carbonyl)-amino]-acetic acid] | 2.0 | 1.5 | 2.4 | 2.4 |  |  | 3.2 | 5.9 | 0.7 | 11.6 |  |  | 
4 | COc1ccc2c(O)c(C(=O)NCC(=O)O)nc(Cl)c2c1 [Compound I, [(1-Chloro-4-hydroxy-7-methoxy-isoquinoline-3-carbonyl)-amino]-acetic acid] | 2.1 | 1.7 | 3.3 | 3.8 |  |  |  |  |  |  |  |  | 
5 | O=C(O)CNC(=O)c1ncc2cc(Cl)c(Cl)cc2c1O [Compound J, [(6,7-Dichloro-4-hydroxy-isoquinoline-3-carbonyl)-amino]-acetic acid] |  |  |  |  |  |  | 3.3 | 8.9 | 0.8 | 6.9 | 2 | 1.3 | 1.7
6 | O=C(O)CNC(=O)c1ncc2cc(Oc3ccccc3)ccc2c1O [Compound K, [(4-Hydroxy-7-phenoxy-isoquinoline-3-carbonyl)-amino]-acetic acid] | 3.0 | 2.2 | 3.3 | 4.8 |  |  | 7.7 |  |  |  |  |  | 
7 | C[C@H](NC(=O)c1ncc2cc(Sc3ccccc3)ccc2c1O)C(=O)O [Compound L, (S)-2-[(4-Hydroxy-7-phenylsulfanyl-isoquinoline-3-carbonyl)-amino]-propionic acid] |  |  |  |  |  |  | 4.8 | 32.8 | 0.2 | 120 | 2.8 | 3.4 | 1
8 | O=C(O)CNC(=O)c1nc(Oc2ccccc2)c2cc(Oc3ccccc3)ccc2c1O [Compound M, [(4-Hydroxy-1,7-diphenoxy-isoquinoline-3-carbonyl)-amino]-acetic acid] |  |  |  |  |  |  | 0.4 | 27.6 | 2.1 | 3.4 |  |  | 
9 | O=C(O)CNC(=O)c1ncc2cc(Sc3ccccc3)ccc2c1O [Compound N, [(4-hydroxy-7-phenylsulfanyl-isoquinoline-3-carbonyl)-amino]-acetic acid] | 3.6 | 2.8 | 3.7 | 5.7 |  |  | 4.9 | 27.1 | 0.4 | 183 | 3.1 | 3.4 | 1.2
